As usually defined, the MIC is the least concentration at which growth counts as inhibited.

Values after ≈ are worked out from the molar mass of the structure shown. “Also recorded” adds a separate entry of the source. Where two headings read alike, the source gives them in different places. A value given as a limit tells only on which side of the number the result lay.

One data set relates to Candida albicans 11651. The experiment in a line: MIC, complete inhibition of growth, Candida albicans 11651. The format is cell-based. How it is done:
(§1) Lucknomycin is introduced at different dilutions into a peptonedextrose medium inoculated with the organism which is to be tested. After incubation for from 2 to 5 days at 28° C., the number of microgrammes of antibiotic per milliliter of medium is determined which must be used to obtain complete inhibition of growth (MIC) of the organism in question. In order to better point out the antifungal activity of Lucknomycin, it is compared with that of other known antifungal antibiotics.

In a further data set the test system is Aspergillus niger. The experiment in a line: MIC, complete inhibition of growth, Aspergillus niger. It is filed as cell-based. How it is done:
as §1

A further data set relates to Trichomoras vaginalis. The data set can be described thus: MIC, complete inhibition of growth, Trichomonas vaginalis. It is filed as cell-based. As to the method:
as §1

The subject of data set [1] is Trichophyton mentagrophytes. The data set can be described thus: MIC, complete inhibition of growth, Trichophyton mentagrophytes. It is filed as cell-based. The settings on record: for MIC: peptone-dextrose medium, 2 to 5 days at 28° C. How it is done:
as §1

The subject of the next data set is Trichophyton acuminatum. The data set can be described thus: MIC, complete inhibition of growth, Trichophyton acuminatum. Particulars: for MIC: peptone-dextrose medium, 2 to 5 days at 28° C. The format is cell-based. As to the method: as §1
In the next data set the test system is Candida krusei. The data set can be described thus: MIC, complete inhibition of growth, Candida krusei. The format is cell-based. How it is done: as §1
In another data set the test system is Candida tropicalis. The experiment in a line: MIC, complete inhibition of growth, Candida tropicalis. The format is cell-based. How it is done:
as §1

The next data set relates to Escherichia coli. The experiment in a line: Antibacterial spectrum, Escherichia coli. It is filed as cell-based. Particulars: 10 mcg/ml, one day at 37° C. As to the method: as §1
(§2) The experimental conditions are the same as for the determination of the fungal spectrum, except that the incubation time is one day at 37° C.

For a further data set, the system named is Klebsiella pneumoniae. The experiment in a line: Antibacterial spectrum, Klebsiella pneumoniae. The format is cell-based. The settings on record: 10 mcg/ml, one day at 37° C. As to the method:
as §1, §2

Data set [2] deals with Lactobacillus acidophilus. The experiment in a line: Antibacterial spectrum, Lactobacillus acidophilus. The format is cell-based. The settings on record: 10 mcg/ml, one day at 37° C. As to the method:
as §1, §2

For a further data set, the system named is Proteus mirabilis. The experiment in a line: Antibacterial spectrum, Proteus mirabilis. The format is cell-based. Particulars: 10 mcg/ml, one day at 37° C. As to the method:
as §1, §2

A further data set deals with Pseudomonas aeruginosa. The experiment in a line: Antibacterial spectrum, Pseudomonas aeruginosa. The format is cell-based. Particulars: 10 mcg/ml, one day at 37° C. As to the method:
as §1, §2

In another data set the test system is Staphylococcus aureus. The experiment in a line: Antibacterial spectrum, Staphylococcus aureus. It is filed as cell-based. Particulars: 10 mcg/ml, one day at 37° C. As to the method: as §1, §2
Another data set has as its system Streptococcus faecalis. The data set can be described thus: Antibacterial spectrum, Streptococcus faecalis. It is filed as cell-based. The settings on record: 10 mcg/ml, one day at 37° C. How it is done:
as §1, §2

For data set [3], the system named is Trichomonas vaginalis. The data set can be described thus: Antiprotozoal activity, killing of a culture in full growth of Trichomonas vaginalis. Particulars: 0.5 mcg./ml.; within about 30 minutes. The format is cell-based. As to the method: A concentration of 0.5 mcg./ml. of the antibiotic kills 50% of individuals of a culture in full growth of Trichomonas vaginalis within a period of about 30 minutes.

The subject of the next data set is mice. The data set can be described thus: Toxicity, lethal dose LD50 in mice. It is filed as in vivo. From the text:
Lethal dose LD50 in mice in mg./kg. body weight:

Data set [4] relates to Trichomonas vaginalis. The data set can be described thus: Anti-Trichomonas vaginalis activity, subcutaneous Trichomonas vaginalis abscess in mice. It is filed as in vivo. The settings on record: subcutaneous injections at the level of the abscess. The source says:
This test is made in mice on a subcutaneous Trichomonas vaginalis abscess. Subcutaneous injections at the level of the abscess of a suspension (or solution) of the following products at various concentrations are used to determine the ED50.

For another data set, the system named is Candida albicans. The data set can be described thus: Anti-Candida albicans activity, experimental Candida albicans vaginitis in female rats. Particulars: per tablet: lucknomycin 5 mg., clotrimazole 20 mg., nystatin 4 mg. The format is in vivo. From the text: The test is made in female rats on experimental Candida albicans vaginitis.
Another data set is described as follows: Solubility. It is filed as physicochemical.
Where [5] appears, read: Candida albicans 11651, peptone-dextrose medium, 2 to 5 days at 28° C.
The mark [6] stands for this setting: peptone-dextrose medium, 2 to 5 days at 28° C.
[7] abbreviates: peptone-dextrose medium, 2 to 5 days at 28° C., read-out: MIC.

With `C[C@@H]1[C@H](O)[C@@H](C)/C=C/C=C/C=C/C=C/C=C/C=C/C=C/[C@H](O[C@@H]2O[C@H](C)[C@@H](O)[C@H](N)[C@@H]2O)C[C@@H]2O[C@](O)(C[C@@H](O)C[C@@H](O)[C@H](O)CC[C@@H](O)C[C@@H](O)CC(=O)O[C@H]1C)C[C@H](O)[C@H]2C(=O)O` [Amphotericin B], the minimum inhibitory concentration (MIC) in the data set on Candida albicans 11651 (Candida albicans, 11651) is 1.25 µg/mL (≈ 1.35 µM); in the data set with Aspergillus niger, 0.6 µg/mL (≈ 0.649 µM); against Trichomoras vaginalis it was > 10 µg/mL.
Consider `CNc1ccc(C(=O)CC(O)C2C/C=C/C=C/C=C/C=C/C=C/C=C/C=C/C(OC3OC(C)C(O)C(N)C3O)CC(O)C(C(=O)O)C(O)CC(O)CC(O)CC(O)CC(O)CC(O)CC(O)CC(O)CC(=O)O2)cc1` (centres unmarked) [Lucknomycin], for which the “activity against growth (in words)” value in the data set with Candida albicans 11651 (Candida albicans), with Aspergillus niger, with Candida krusei and in the data set with Candida tropicalis was “effective” each time. Further, the minimal inhibitory concentration (MIC) was 0.1 to 0.2 µg/mL against Candida albicans 11651 (setting [5]); 0.5 µg/mL (≈ 0.471 µM) with Aspergillus niger (setting [6]); 25 µg/mL (≈ 23.6 µM) in data set [1]; 12.5 µg/mL (≈ 11.8 µM) against Trichophyton acuminatum; < 0.05 µg/mL in the data set with Trichomoras vaginalis (setting [6]); 0.2 to 0.4 µg/mL against Candida krusei (setting [6]). The minimal inhibitory concentration (MIC) in the data set on Candida tropicalis (setting [6]) was in the range of 0.1 to 0.2 µg/mL. Moreover, the “activity (in words)” value was “moderately active” in data set [1], “moderately active” in the data set on Trichophyton acuminatum and “effective” in the data set on Trichomoras vaginalis. Besides, the inhibiting activity entry (in the data set with Escherichia coli; in the data set on Klebsiella pneumoniae; in data set [2]; with Proteus mirabilis; in the data set with Pseudomonas aeruginosa; in the data set with Staphylococcus aureus) was “inactive; also recorded: does not exert an inhibiting activity” each time. In addition, the inhibiting activity result in the data set on Streptococcus faecalis was “inactive; also recorded: does not exert an inhibiting activity”. Besides, the “individuals of a culture in full growth killed” value in the data set with Trichomonas vaginalis [3] came out at 50%. For the same compound, the LD50 in the data set on mice (intraperitoneal) is 5-10 mg./kg. body weight; with mice (intravenous), 10-20 mg./kg. body weight; in the data set with mice (oral), > 800 mg./kg. body weight; in the data set with mice (subcutaneous), > 800 mg./kg. body weight. The “ED50 on Trichomonas vaginalis” value in the data set on Trichomonas vaginalis [4] was found to be 12 µg/mL (≈ 11.3 µM). Further, the “Number of cured rats/infested rats” value in the data set with Candida albicans (after 4 administrations) is given as 14/16; in the data set on Candida albicans (after 8 administrations), 13/13; in the data set with Candida albicans (after 12 administrations) it was 12/12. Further, the Solubility entry in the data set “Solubility” (in 60% methanol, concentrated ethanol (ethanol) and isopropanol) is listed as “less soluble”; in “Solubility” (in benzene, acetone, water, chloroform, absolute ethanol, cyclohexane, ethyl acetate and diethyl ether) it was “insoluble”; in “Solubility” (in pyridine, dimethylformamide and dimethylacetamide), “soluble”.
Regarding `Cc1ncc([N+](=O)[O-])n1CCO` [Metronidazole], the MIC in the data set with Trichomoras vaginalis (setting [7]) turned out to be 0.5 µg/mL (≈ 2.92 µM).
As to `C[C@@H]1[C@H](O)[C@@H](C)/C=C/C=C/CC/C=C/C=C/C=C/C=C/C(O[C@H]2O[C@H](C)[C@@H](O)[C@H](N)[C@@H]2O)CC2O[C@](O)(CC(O)C(O)CCC(O)CC(O)CC(O)CC(=O)O[C@H]1C)CC(O)C2C(=O)O` (some centres unmarked) [Nystatin, nystatin], the minimum inhibitory concentration (MIC) against Candida albicans 11651 (setting [5]) was 2.5 µg/mL (≈ 2.7 µM); in the data set with Aspergillus niger (setting [6]), 5 µg/mL (≈ 5.4 µM); in data set [1], 25 µg/mL (≈ 27 µM); with Trichophyton acuminatum, 25 µg/mL (≈ 27 µM); in the data set on Trichomoras vaginalis (setting [6]), > 10 µg/mL. Besides, the “Number of cured rats/infested rats” value is listed as 5/11 in the data set on Candida albicans (after 4 administrations), 8/11 with Candida albicans (after 8 administrations) and 9/11 in the data set with Candida albicans (after 12 administrations).
On to `C[C@@H]1C/C=C/C=C/C=C/C=C/[C@H](O[C@@H]2O[C@H](C)[C@@H](O)[C@H](N)[C@@H]2O)C[C@@H]2O[C@](O)(C[C@@H](O)C[C@H]3O[C@@H]3/C=C/C(=O)O1)C[C@H](O)[C@H]2C(=O)O` [Pimaricin], for which the minimum inhibitory concentration (MIC) in the data set on Candida albicans 11651 (Candida albicans 11651, peptone-dextrose medium, 2 to 5 days at 28° C., read-out: MIC) is 5 µg/mL (≈ 7.51 µM); in the data set on Aspergillus niger (setting [7]), 2.5 µg/mL (≈ 3.76 µM); in the data set with Trichomoras vaginalis (setting [7]), > 10 µg/mL.
Consider `Clc1ccccc1C(c1ccccc1)(c1ccccc1)n1ccnc1` [clotrimazole], for which the “Number of cured rats/infested rats” value with Candida albicans (after 4 administrations) is given as 17/18; in the data set with Candida albicans (after 8 administrations), 16/16; in the data set with Candida albicans (after 12 administrations), 17/17.
Regarding Candicidin, the “ED50 on Trichomonas vaginalis” value with Trichomonas vaginalis [4] is 24 µg/mL.
On the same count and under the same terms, then Trichomycin, with 43 µg/mL.

For the origin of these results see patent US4056615A, “Lucknomycin and process for producing same” (U C B Societe Anonyme, priority 1975, dated 1977).
